Assay results: PMC4535766, “Antiprotozoal Activity Profiling of Approved Drugs: A Starting Point toward Drug Repositioning” (PLoS ONE, 2015)
Where two headings read alike, the source gives them in different places.

Key:
[1] = test system: P. falciparum strain K1; assay: In vitro activity against P. falciparum, serial drug dilution assay; details: for IC50: Plasmodium falciparum; for selectivity ratio: rat; for Activity against P. falciparum (in words): in vitro
Procedure: (§1) Drug stock solutions (10mg/ml) were in DMSO (100%). […] Selectivity index (SI) was calculated as IC50 L6 cells/IC50 parasite.

[2] = Cytotoxicity on macrophages infected with L. donovani; type: cell-based, mouse; details: mouse
[3] = test system: intracellular amastigotes of L. donovani strain MHOM-ET-67/L82; assay: Activity against Leishmania donovani intracellular amastigotes in mouse peritoneal macrophages; details: Leishmania donovani, Peritoneal macrophage, in Mus musculus
Procedure: After 24 h 1.2 x 10^5 amastigote L. donovani in 100 μl were added. The amastigotes were taken from an axenic culture grown at pH 5.4. Four hours later, the medium containing free amastigote forms was removed and replaced by fresh medium. The next day the medium was replaced by medium with or without a serial drug dilution of seven 3-fold dilution steps covering a range from 30 to 0.04 μg/ml. Parasite growth in the presence of the drug was compared to control wells. After 96 h of incubation, the medium was removed and the slides fixed with methanol for 10 min followed by staining with a 10% Giemsa solution. Infected and non-infected macrophages were counted for the control cultures and those exposed to the serial drug dilutions. The infection rates were determined. The results were expressed as a percentage reduction in parasite burden compared to control wells, and the IC50 was calculated by linear regression analysis. The collection of mouse peritoneal macrophages was done at the Swiss Tropical and Public Health Institute (Basel) according to the rules and regulations for the protection of animal rights ("Tierschutzverordnung") of the Swiss "Bundesamt für Veterinärwesen".

[4] = test system: axenic amastigotes of L. donovani, strain MHOM-ET-67/L82; assay: In vitro activity against L. donovani axenic amastigotes, serial drug dilution assay; type: cell-based, Leishmania donovani; details: Leishmania donovani
Procedure: as §1

[5] = in vitro; details: rat
Procedure: as §1

[6] = test system: T. cruzi, strain Tulahuen C4, intracellular amastigotes; assay: microbe, parasite or virus in culture; details: Trypanosoma cruzi, TULAHUEN
Procedure: as §1

[7] = test system: T. b. rhodesiense strain STIB 900, trypomastigotes; assay: In vitro activity against T. b. rhodesiense, serial drug dilution assay; details: for IC50: Trypanosoma brucei; for Activity against T. b. rhodesiense (in words): in vitro
Procedure: as §1

[8] = macrophages infected with L. donovani, read-out: IC50 Cytotox. mac.inf.
[9] = 96 h, read-out: IC50 L. don. intracell
[10] = axenic amastigotes, strain MHOM-ET-67/L82, means of two independent assays, read-out: IC50 L. don. axen.
[11] = infected macrophages, read-out: Cytotox. mac.inf. IC50
[12] = read-out: L. don. intracell IC50
[13] = L. donovani axenic amastigotes, read-out: L. don. axen. IC50
[14] = L6 cells, IC50 Cytotox. L6, L6 cells, means of two independent assays
[15] = Selectivity index: IC50 Cytotoxicity L6/ IC50 P. falciparum
[16] = mouse peritoneal macrophages infected with L. donovani, macrophages infected with L. donovani, read-out: IC50 Cytotox. mac.inf.

SMILES	IC50 ([1]; K1, read-out: IC50 P. falc. K1)	IC50 at 96 h [2, 8]	IC50 [3, 9]	IC50 [4, 10]	IC50 ([5]; IC50 Cytotox. L6)	IC50 ([6]; read-out: IC50 T. cruzi)	IC50 ([7]; read-out: IC50 T. b. rhod.)	further results
Cc1c(O)cccc1C(=O)N[C@@H](CSc1ccccc1)[C@H](O)CN1C[C@H]2CCCC[C@H]2C[C@H]1C(=O)NC(C)(C)C [Nelfinavir]	10.4 µM	> 52.8 µM	20.2 µM	9.62 µM	12.1 µM	10.2 µM	20.6 µM	
COc1ccc(Cl)cc1C(=O)NCCc1ccc(S(=O)(=O)NC(=O)NC2CCCCC2)cc1 [Glybenclamide]								IC50 ([1]; K1, read-out: P. falc. IC50): 38.3 µM; IC50 at 96 h [2, 11]: > 60.7 µM; IC50 [3, 12]: > 60.7 µM; IC50 [4, 13]: 9.8 µM; IC50 [5]: 116 µM; IC50 ([6]; read-out: T. cruzi IC50): 93.9 µM; IC50 ([7]; read-out: T. b. rhod. IC50): 87.7 µM
CN(C)CCCN1c2ccccc2Sc2ccccc21 [Promazine]	0.49 µM	> 35.2 µM	> 35.2 µM	> 316 µM		49.1 µM	2.16 µM	selectivity ratio ([1]; L6 cells versus P. falciparum K1, Selectivity index: IC50 Cytotoxicity L6/ IC50 P. falciparum): 61; IC50 [5, 14]: 30.1 µM; selectivity ratio ([7]; rat, L6 cells versus T. b. rhodesiense STIB 900 trypomastigotes): 14
CN(C)CCCN1c2ccccc2Sc2ccc(Cl)cc21 [Chlorpromazine]	3.03 µM	31.4 µM	> 9.41 µM	48.5 µM	12.3 µM	17.2 µM	1.25 µM	
Clc1ccc(C(OCCN2CCCCC2)c2ccccc2)cc1 (centres unmarked) [Cloperastine]	0.87 µM		> 30.3 µM	265 µM		9.46 µM	4.91 µM	Activity against P. falciparum (in words) [1]: selective activities; selectivity ratio [1, 15]: 50; MCC at 96 h ([2]; mouse peritoneal macrophages infected with L. donovani, read-out: IC50 Cytotox. mac.inf.): 90.9 µM; IC50 [5, 14]: 43.4 µM
CO[C@H]1/C=C/O[C@@]2(C)Oc3c(C)c(O)c4c(O)c(c5c(nc6cc(C)ccn65)c4c3C2=O)NC(=O)/C(C)=C\C=C\[C@H](C)[C@H](O)[C@@H](C)[C@@H](O)[C@@H](C)[C@H](OC(C)=O)[C@@H]1C [Rifaximin]	0.92 µM				88 µM			selectivity ratio [1, 15]: 96; IC50 at 96 h [2, 11]: > 38.2 µM; IC50 [3, 12]: > 38.2 µM; IC50 [4, 13]: 15 µM; IC50 ([6]; read-out: T. cruzi IC50): 40.2 µM; IC50 ([7]; read-out: T. b. rhod. IC50): 17.1 µM; Activity against T. b. rhodesiense (in words) [7]: devoid of antitrypanosomal activity
COC(=O)N[C@H](C(=O)N[C@@H](Cc1ccccc1)[C@@H](O)CN(Cc1ccc(-c2ccccn2)cc1)NC(=O)[C@@H](NC(=O)OC)C(C)(C)C)C(C)(C)C [Atazanavir (Sulfate), Atazanavir]	7.95 µM		> 37.5 µM	24.1 µM		33.3 µM	12.7 µM	IC50 at 96 h [2, 16]: > 37.5 µM; IC50 [5, 14]: 46.5 µM
Nc1nc(N)c2nc(-c3ccccc3)c(N)nc2n1 [Triamterene]	17.2 µM	> 11.8 µM	> 11.8 µM	307 µM	8.53 µM	22.7 µM	21.7 µM	
CCn1cc(C(=O)O)c(=O)c2cc(F)c(N3CCNCC3)nc21 [Enoxacin]								IC50 ([1]; K1, read-out: P. falc. IC50): 76.8 µM; IC50 at 96 h [2, 11]: > 93.7 µM; IC50 [3, 12]: > 93.7 µM; IC50 [4, 13]: > 312 µM; IC50 ([5]; Cytotox. L6 IC50): 25 µM; IC50 ([6]; read-out: T. cruzi IC50): 163 µM; IC50 ([7]; read-out: T. b. rhod. IC50): 113 µM
CC(C)(C)NC(=O)[C@@H]1CN(Cc2cccnc2)CCN1C[C@@H](O)C[C@@H](Cc1ccccc1)C(=O)N[C@H]1c2ccccc2C[C@H]1O [Indinavir (Sulfate), Indinavir]	6.03 µM	> 42.3 µM	> 42.3 µM	> 141 µM		93.5 µM	48.2 µM	IC50 [5]: > 141 µM
Cc1ncc([N+](=O)[O-])n1CCO [Metronidazole]	277 µM	> 175 µM	> 175 µM	491 µM	339 µM	279 µM	338 µM	Activity against T. b. rhodesiense (in words) [7]: inactive
CCC[C@@H]1C[C@@H](C(=O)N[C@@H]([C@H]2O[C@H](SC)[C@H](O)[C@@H](O)[C@H]2O)[C@@H](C)O)N(C)C1 [Lincomycin]	7.08 µM	> 73.8 µM	> 73.8 µM	> 221 µM	> 221 µM	> 221 µM	> 221 µM	
CC(C)(C)NC(=O)[C@@H]1C[C@@H]2CCCC[C@@H]2CN1C[C@@H](O)[C@H](Cc1ccccc1)NC(=O)[C@H](CC(N)=O)NC(=O)c1ccc2ccccc2n1 [Saquinavir]	11.9 µM	> 44.7 µM	> 44.7 µM	77.4 µM	18.2 µM	17.1 µM	12.3 µM	
Cc1nc2ccccn2c(=O)c1CCN1CCC(C(=O)c2ccc(F)cc2)CC1 [Pirenperone]	4.35 µM		> 76.2 µM	162 µM		128 µM	30 µM	IC50 at 96 h [2, 16]: > 76.2 µM; IC50 [5, 14]: 232 µM
Cc1cccc(C)c1OCC(=O)N[C@@H](Cc1ccccc1)[C@@H](O)C[C@H](Cc1ccccc1)NC(=O)[C@H](C(C)C)N1CCCNC1=O [Lopinavir]	1.92 µM	> 47.7 µM	> 47.7 µM	11.8 µM	18.9 µM	15.4 µM	10.8 µM	
CN1CCC(=C2c3ccccc3CC(=O)c3sccc32)CC1 [Ketotifen]	0.75 µM		> 97 µM	> 291 µM		141 µM	15.2 µM	Activity against P. falciparum (in words) [1]: selective activities; selectivity ratio [1, 15]: 196; IC50 at 96 h [2, 16]: > 97 µM; IC50 [5, 14]: 147 µM
C[C@H]1c2cccc(O)c2C(=O)C2=C(O)[C@]3(O)C(=O)C(C(N)=O)=C(O)[C@@H](N(C)C)[C@@H]3[C@@H](O)[C@@H]21 [Doxycycline]								IC50 ([1]; K1, read-out: P. falc. IC50): 4.48 µM; MCC at 96 h [2, 11]: 67.5 µM; IC50 [3, 12]: > 22.5 µM; IC50 [4, 13]: 24.1 µM; IC50 ([5]; Cytotox. L6 IC50): 14.5 µM; IC50 ([6]; read-out: T. cruzi IC50): 39.1 µM; IC50 ([7]; read-out: T. b. rhod. IC50): 63.7 µM
